Each structure is given as a SMILES string. Counter-ions that a name gives are not always drawn. Bounds are passed on as bounds.

Our source for the IC50 values is US11958861B2, “Spirocyclic lactams as JAK2 V617F inhibitors” (Incyte Corporation, priority 2021, dated 2024).

Test [1] concerns the target T1, pseudo-kinase domain (JH2, amino-acids 536-812) of human Wild Type JAK2 (Homo sapiens, UniProt O60674, F794H/W659A/W777A).
T1 construct: pseudo-kinase domain (JH2, amino-acids 536-812 with 3 surface mutations W659A, W777A, F794H); purchased BPS Bioscience 79463; host or cells: baculovirus expression system
The test is described as follows: JAK2 LanthaScreen JH2-WT Binding Assay. The settings on record: 1 hour at 25° C. Put shortly:
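Biotinylated C-terminal His-Avi-tagged JH2 (residues 536-812, baculovirus-expressed) at 0.145 nM was incubated with serially diluted compounds, 50 nM fluorescent JAK2-JH2 tracer and 0.25 nM streptavidin-Tb cryptate in pH 7.5 Tris buffer with MgCl2, Brij-35, BSA, EGTA, glycerol and DTT. LanthaScreen TR-FRET was read after 1 hour at 25° C; IC50 came from four-parameter fits.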
Background: Time-resolved FRET reads energy transfer from a long-lived donor to a nearby acceptor.

The target of test [2] is T2, catalytic domain (JH1, amino acids 826-1132) of human JAK2 (Homo sapiens, UniProt O60674).
T2 construct: catalytic domain (JH1, amino acids 826-1132) of human JAK2; purchased Carna Biosciences 08-445-20N; host or cells: baculovirus expression system
The test can be described thus: JAK2 LanthaScreen JH1 Binding Assay. As to conditions: 2 hours at 25° C. Put shortly:
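Reaction held 1.5 nM biotinylated FLAG-JAK2 JH1, 50 nM tracer and 0.5 nM streptavidin-Tb in pH 7.5 Tris buffer; 2 mM ATP defined nonspecific binding.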

In test [3] the target is T3, pseudo-kinase domain (JH2, amino-acids 536-812) of human V617F mutant JAK2 (Homo sapiens, UniProt O60674, F794H/V617F/W659A/W777A).
T3 construct: pseudo-kinase domain (JH2, amino-acids 536-812 with 3 surface mutations W659A, W777A, F794H); purchased BPS Bioscience 79498; host or cells: baculovirus expression system
The test is described as follows: JAK2 LanthaScreen JH2-V617F Binding Assay. The settings on record: 1 hour at 25° C. Put shortly:
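Binding was measured as TR-FRET displacement of 50 nM tracer from 0.26 nM biotinylated His-Avi protein, incubated one hour at 25° C; IC50 from a four-parameter fit.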

The target of test [4] is T4, catalytic domain (JH1, amino acids 808-1132) of human JAK2 (Homo sapiens, UniProt O60674).
T4 construct: catalytic domain (JH1, amino acids 808-1132) of human JAK2; His (N); purchased BPS Bioscience 40450; host or cells: baculovirus expression system
The test is described as follows: JAK2 HTRF Enzyme Activity Assay. Type of test: biochemical. As to conditions: ATP 30 μM, read-out: ENZ 30UMATP. Put shortly: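 IC50 values come from a four-parameter fit of HTRF signal (Eu-PY20 antibody/streptavidin-APC, EDTA-quenched). Reaction: 0.015 nM N-His JAK2 catalytic domain (baculovirus), 500 nM biotin-peptide, 30 μM or 1 mM ATP, Tris pH 7.5 buffer, 60 min, 25° C.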

T3 sequence (O60674 536-812 V617F/W659A/W777A/F794H): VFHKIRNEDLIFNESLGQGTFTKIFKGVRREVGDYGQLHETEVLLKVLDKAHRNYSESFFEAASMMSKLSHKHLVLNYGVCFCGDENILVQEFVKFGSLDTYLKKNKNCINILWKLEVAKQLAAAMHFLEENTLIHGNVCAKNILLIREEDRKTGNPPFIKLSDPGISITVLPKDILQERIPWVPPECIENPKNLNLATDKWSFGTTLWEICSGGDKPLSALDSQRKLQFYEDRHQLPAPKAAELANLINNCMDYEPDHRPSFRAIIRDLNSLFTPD
T2 sequence (O60674 826-1132): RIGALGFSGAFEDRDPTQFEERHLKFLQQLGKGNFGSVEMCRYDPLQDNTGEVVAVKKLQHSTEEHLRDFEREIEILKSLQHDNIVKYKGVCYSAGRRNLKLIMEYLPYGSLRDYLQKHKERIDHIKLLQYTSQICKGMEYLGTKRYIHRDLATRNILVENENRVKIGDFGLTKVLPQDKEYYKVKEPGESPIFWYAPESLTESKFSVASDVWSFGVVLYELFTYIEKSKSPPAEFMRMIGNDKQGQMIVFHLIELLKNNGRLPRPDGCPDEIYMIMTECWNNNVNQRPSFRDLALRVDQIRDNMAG
T4 sequence (O60674 808-1132): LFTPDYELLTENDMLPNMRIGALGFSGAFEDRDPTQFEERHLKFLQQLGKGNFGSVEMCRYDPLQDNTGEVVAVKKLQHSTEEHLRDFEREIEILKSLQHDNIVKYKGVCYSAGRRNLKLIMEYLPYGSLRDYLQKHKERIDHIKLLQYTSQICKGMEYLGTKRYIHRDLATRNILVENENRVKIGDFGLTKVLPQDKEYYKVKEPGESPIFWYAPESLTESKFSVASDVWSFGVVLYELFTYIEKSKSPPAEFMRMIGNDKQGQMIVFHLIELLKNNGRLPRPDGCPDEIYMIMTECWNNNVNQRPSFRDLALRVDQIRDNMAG
T1 sequence (O60674 536-812 W659A/W777A/F794H): as the sequence (O60674 536-812 V617F/W659A/W777A/F794H) above, with F82V counted along it

Regarding `[2H]C([2H])([2H])n1ncc2cc(-c3c(-c4cnn(C)c4)[nH]c4ncc5c(c34)C3(CC4(CCN(C(=O)OC)CC4)C3)C(=O)N5C)ccc21` [Example 58, Methyl 6-methyl-2-(1-methyl-1H-pyrazol-4-yl)-1-(1-(methyl-d3)-1H-indazol-5-yl)-7-oxo-6,7-dihydro-3H-dispiro[dipyrrolo[2,3-b:3′,2′-d]pyridine-8,1′-cyclobutane-3′,4″-piperidine]-1″-carboxylate, trifluoroacetate salt], the IC50 is no more than 0.1 µM in test [1], 1.25 to 2.5 µM in test [2], no more than 0.1 µM in test [3] and 1.25 to 2.5 µM in test [4].

On to `CCCC(=O)N1CCC2(CC1)CC1(C2)C(=O)N(C)c2cnc3[nH]c(-c4cnn(C)c4)c(-c4ccc5c(cnn5C)c4)c3c21` [Example 59, 1″-Butyryl-6-methyl-1-(1-methyl-1H-indazol-5-yl)-2-(1-methyl-1H-pyrazol-4-yl)-3,6-dihydro-7H-dispiro[dipyrrolo[2,3-b:3′,2′-d]pyridine-8,1′-cyclobutane-3′,4″-piperidin]-7-one, trifluoroacetate salt], for which the IC50 in test [1] is no more than 0.1 µM; in test [2], 1.25 to 2.5 µM; in test [3], no more than 0.1 µM; in test [4] it was 1.25 to 2.5 µM.

For `CN(C)C(=O)N1CCC2(CC1)CC1(C2)C(=O)N(C)c2cnc3[nH]c(-c4cnn(C)c4)c(-c4ccc5c(cnn5C)c4)c3c21` [Example 60, N,N,6-Trimethyl-1-(1-methyl-1H-indazol-5-yl)-2-(1-methyl-1H-pyrazol-4-yl)-7-oxo-6,7-dihydro-3H-dispiro[dipyrrolo[2,3-b:3′,2′-d]pyridine-8,1′-cyclobutane-3′,4″-piperidine]-1″-carboxamide, trifluoroacetate salt], the IC50 in test [1] was no more than 0.1 µM; in test [2], 1.25 to 2.5 µM; in test [3] it was no more than 0.1 µM; in test [4], 1.25 to 2.5 µM.

For `COC(=O)N1CCC2(CC1)CC1(C2)C(=O)N(C)c2cnc3[nH]c(-c4cnn(C)c4)c(-c4ccc5c(cnn5C)c4)c3c21` [Example 61, Methyl 6-methyl-1-(1-methyl-1H-indazol-5-yl)-2-(1-methyl-1H-pyrazol-4-yl)-7-oxo-6,7-dihydro-3H-dispiro[dipyrrolo[2,3-b:3′,2′-d]pyridine-8,1′-cyclobutane-3′,4″-piperidine]-1″-carboxylate, trifluoroacetate salt], the IC50 was no more than 0.1 µM in test [1], 0.5 to 1.25 µM in test [2], no more than 0.1 µM in test [3] and 0.5 to 1.25 µM in test [4].

`COCCS(=O)(=O)N1CCC2(CC1)CC1(C2)C(=O)N(C)c2cnc3[nH]c(-c4cnn(C)c4)c(-c4ccccc4)c3c21` [Example 62, 1″-((2-Methoxyethyl)sulfonyl)-6-methyl-2-(1-methyl-1H-pyrazol-4-yl)-1-phenyl-3,6-dihydro-7H-dispiro[dipyrrolo[2,3-b:3′,2′-d]pyridine-8,1′-cyclobutane-3′,4″-piperidin]-7-one, trifluoroacetate salt]: the IC50 in test [1] was no more than 0.1 µM; in test [2] it was greater than 2.5 µM; in test [3] it was no more than 0.1 µM; in test [4], greater than 2.5 µM.

Regarding `CCCC(=O)N1CCC2(CC1)CC1(C2)C(=O)N(C)c2cnc3[nH]c(-c4ccn(C)c4)c(-c4ccc5c(cnn5C)c4)c3c21` [Example 64, 1″-Butyryl-6-methyl-1-(1-methyl-1H-indazol-5-yl)-2-(1-methyl-1H-pyrrol-3-yl)-3,6-dihydro-7H-dispiro[dipyrrolo[2,3-b:3′,2′-d]pyridine-8,1cyclobutane-3′,4″-piperidin]-7-one, trifluoroacetate salt], the IC50 is no more than 0.1 µM in test [1], 1.25 to 2.5 µM in test [2], no more than 0.1 µM in test [3] and 1.25 to 2.5 µM in test [4].

For the molecule `CN1C(=O)C2(CCN(C3(CC#N)CCCC3)CC2)c2c1cnc1[nH]c(-c3cnn(C)c3)c(-c3ccc4c(cnn4C)c3)c21` [Example 73, 2-(1-(6-Methyl-1-(1-methyl-1H-indazol-5-yl)-2-(1-methyl-1H-pyrazol-4-yl)-7-oxo-6,7-dihydro-3H-spiro[dipyrrolo[2,3-b:3′,2′-d]pyridine-8,4′-piperidin]-1′-yl)cyclopentyl)acetonitrile, trifluoroacetate salt], the IC50 was no more than 0.1 µM in test [1], 0.1 to 0.5 µM in test [2], no more than 0.1 µM in test [3] and 0.1 to 0.5 µM in test [4].

For `CN1C(=O)C2(C=CN(C3(CC#N)CC3)C=C2)c2c1cnc1[nH]c(-c3cnn(C)c3)c(-c3ccc4c(cnn4C)c3)c21` [Example 74, 2-(1-(6-Methyl-1-(1-methyl-1H-indazol-5-yl)-2-(1-methyl-1H-pyrazol-4-yl)-7-oxo-6,7-dihydro-1′H,3H-spiro[dipyrrolo[2,3-b:3′,2′-d]pyridine-8,4′-pyridin]-1′-yl)cyclopropyl)acetonitrile, trifluoroacetate salt], the IC50 in test [1] was no more than 0.1 µM; in test [2], 0.5 to 1.25 µM; in test [3], no more than 0.1 µM; in test [4] it was 0.5 to 1.25 µM.

For the molecule `CN1C(=O)C2(CCN(C(C)(C)c3c[nH]nn3)CC2)c2c1cnc1[nH]c(-c3cnn(C)c3)c(-c3ccc4c(cnn4C)c3)c21` [Example 76, 1′-(2-(1H-1,2,3-Triazol-4-yl)propan-2-yl)-6-methyl-1-(1-methyl-1H-indazol-5-yl)-2-(1-methyl-1H-pyrazol-4-yl)-3,6-dihydro-7H-spiro[dipyrrolo[2,3-b:3′,2′-d]pyridine-8,4′-piperidin]-7-one], the IC50 in test [1] was no more than 0.1 µM; in test [2], 0.1 to 0.5 µM; in test [3], no more than 0.1 µM; in test [4] it was 0.1 to 0.5 µM.

On to `CN1C(=O)C2(CCN(C(C)(C)c3nnc[nH]3)CC2)c2c1cnc1[nH]c(-c3cnn(C)c3)c(-c3ccc4c(cnn4C)c3)c21` [Example 77, 1′-(2-(4H-1,2,4-Triazol-3-yl)propan-2-yl)-6-methyl-1-(1-methyl-1H-indazol-5-yl)-2-(1-methyl-1H-pyrazol-4-yl)-3,6-dihydro-7H-spiro[dipyrrolo[2,3-b:3′,2′-d]pyridine-8,4′-piperidin]-7-one], for which the IC50 in test [1] was no more than 0.1 µM; in test [2] it was 0.5 to 1.25 µM; in test [3], no more than 0.1 µM; in test [4], 0.5 to 1.25 µM.

As for `[2H]C([2H])([2H])n1ncc2cc(-c3c(-c4cnn5c4CCC5)[nH]c4ncc5c(c34)C3(CCN(C4(CC#N)CCCC4)CC3)C(=O)N5C)ccc21` [Example 79, 2-(1-(2-(5,6-Dihydro-4H-pyrrolo[1,2-b]pyrazol-3-yl)-6-methyl-1-(1-(methyl-d3)-1H-indazol-5-yl)-7-oxo-6,7-dihydro-3H-spiro[dipyrrolo[2,3-b:3′,2′-d]pyridine-8,4′-piperidin]-1′-yl)cyclopentyl)acetonitrile], the IC50 in test [1] was no more than 0.1 µM; in test [2], greater than 2.5 µM; in test [3], no more than 0.1 µM; in test [4] it was 1.25 to 2.5 µM.

Take `COC(=O)N1CCC(CC#N)(N2CCC3(CC2)C(=O)N(C)c2cnc4[nH]c(-c5cnn(C)c5)c(-c5ccc6c(cnn6C)c5)c4c23)CC1` [Example 81, Methyl 4-(cyanomethyl)-4-(6-methyl-1-(1-methyl-1H-indazol-5-yl)-2-(1-methyl-1H-pyrazol-4-yl)-7-oxo-6,7-dihydro-3H-spiro[dipyrrolo[2,3-b:3′,2′-d]pyridine-8,4′-piperidin]-1′-yl)piperidine-1-carboxylate]: the IC50 is no more than 0.1 µM in test [1], 0.5 to 1.25 µM in test [2], no more than 0.1 µM in test [3] and 0.5 to 1.25 µM in test [4].

For `CC(=O)NC12CC(N3CCC4(CC3)C(=O)N(C)c3cnc5[nH]c(-c6cnn(C)c6)c(-c6ccc7c(cnn7C)c6)c5c34)(C1)C2` [Example 82, N-(3-(6-Methyl-1-(1-methyl-1H-indazol-5-yl)-2-(1-methyl-1H-pyrazol-4-yl)-7-oxo-6,7-dihydro-3H-spiro[dipyrrolo[2,3-b:3′,2′-d]pyridine-8,4′-piperidin]-1′-yl)bicyclo[1.1.1]pentan-1-yl)acetamide], the IC50 in test [1] is no more than 0.1 µM; in test [2], 0.1 to 0.5 µM; in test [3] it was no more than 0.1 µM; in test [4], 0.1 to 0.5 µM.
